Experimental data reported in PMC7251641 (Cell, 2010).

Target: INO80 (Saccharomyces cerevisiae, UniProt P53115)
Assay: real-time fluorescent phosphate-release ATPase assay
Format: biochemical
Conditions: 0.1 nM INO80; with or without 15 nM nucleosomes or DNA; 23 °C

For `Nc1ncnc2c1ncn2[C@@H]1O[C@H](COP(=O)(O)OP(=O)(O)OP(=O)(O)O)[C@@H](O)[C@H]1O` [ATP], the KM was “KM for the ATPase of SWR1, INO80, and SWI/SNF in the presence or absence”.
